13 compounds from ChEMBL document CHEMBL5331089, “Mucormycosis: A hidden mystery of fungal infection, possible diagnosis, treatment and development of new therapeutic agents” (Eur J Med Chem, 2023) can be followed below.

Experiment [1] has as its system Syncephalastrum racemosum. Kind of experiment: Antifungal activity against Syncephalastrum racemosum assessed as fungal growth inhibition measured for 24 to 24 hrs by agar well diffusion assay. The format is functional, organism-based. The settings on record: for MIC: time 24-24 hrs.
The subject of experiment [2] is Syncephalastrum racemosum. Put plainly: Antifungal activity against Syncephalastrum racemosum RCMB 016001 assessed as zone of inhibition measured after 24 hrs. The format is functional.
The subject of experiment [3] is Mucor circinelloides. Put plainly: Antifungal activity against Mucor circinelloides assessed as fungal growth inhibition measured at 36 to 48 hrs. It counts as functional. The note with it: time 36-48 hrs.
The subject of experiment [4] is Rhizomucor pusillus. Put plainly: Antifungal activity against Rhizomucor pusillus assessed as fungal growth inhibition measured at 36 to 48 hrs. It counts as functional. The note with it: time 36-48 hrs.
Experiment [5] deals with Rhizopus delemar. Kind of experiment: Antifungal activity against Rhizopus delemar assessed as fungal growth inhibition. The format is functional. The settings on record: read-out: MEC.
Experiment [6] concerns Rhizopus arrhizus. Kind of experiment: Antifungal activity against Rhizopus oryzae assessed as fungal growth inhibition. It counts as functional. The note with it: read-out: MEC.
For experiment [7], the system named is Lichtheimia corymbifera. Kind of experiment: Antifungal activity against Absidia corymbifera assessed as fungal growth inhibition. It counts as functional. The settings on record: read-out: MEC.
Experiment [8] has as its system Mucor circinelloides. Put plainly: Antifungal activity against Mucor circinelloides assessed as fungal growth inhibition. It counts as functional. The note with it: read-out: MEC.
Experiment [9] has as its system Mucor indicus. Put plainly: Antifungal activity against Mucor indicus assessed as fungal growth inhibition. It counts as functional. The settings on record: read-out: MEC.

Each structure is given as a SMILES string. ≈ marks a conversion by molar mass, not a printed value. Some results are limits rather than exact numbers.

For the compound `CCOC(=O)N1C/C(=C\c2ccc(OC)cc2)C(=O)[C@@]2(C1)[C@H](c1ccc(OC)cc1)[C@H]1CCCN1[C@]21C(=O)Nc2ccccc21`, in experiment [1], the IC50 turned out to be 11.3 µg/mL (≈ 18.6 µM) and the MIC was 0.98 µg/mL (≈ 1.61 µM).

Take `CCOC(=O)N1C/C(=C\c2ccc(Cl)cc2)C(=O)[C@@]2(C1)[C@H](c1ccc(Cl)cc1)CN(C)[C@]21C(=O)Nc2ccccc21`: in experiment [2], the “inhibition zone (IZ)” value is on record as 39.46 mm. For the same compound, in [1], the IC50 turned out to be 16.4 µg/mL (≈ 27.7 µM) and the MIC was found to be 1.95 µg/mL (≈ 3.3 µM).

As for `CCOC(=O)N1C/C(=C\c2ccc([N+](=O)[O-])cc2)C(=O)[C@@]2(C1)[C@H](c1ccc([N+](=O)[O-])cc1)[C@H]1CCCN1[C@]21C(=O)Nc2ccccc21`, the “inhibition zone (IZ)” value in experiment [2] is given as 39.46 mm. Also, in [1], the IC50 was 10.6 µg/mL (≈ 16.7 µM) and the MIC worked out at 0.49 µg/mL (≈ 0.768 µM).

Turning to `CCOC(=O)N1C/C(=C\c2ccc(F)c(F)c2)C(=O)[C@@]2(C1)[C@H](c1ccc(F)c(F)c1)[C@H]1CCCN1[C@]21C(=O)Nc2ccccc21`, in experiment [1], the IC50 was found to be 11.3 µg/mL (≈ 18.3 µM) and the minimal inhibitory concentration (MIC) came to 1.95 µg/mL (≈ 3.15 µM).

As for `CCOC(=O)N1C/C(=C\c2cc(OC)c(OC)c(OC)c2)C(=O)[C@@]2(C1)[C@H](c1cc(OC)c(OC)c(OC)c1)[C@H]1CCCN1[C@]21C(=O)Nc2ccccc21`, in [2], the “inhibition zone (IZ)” value is listed as 39.46 mm.

For the compound `Cc1ccc([C@H]2[C@@]3(SC(=O)NC3=O)C3CCCN3[C@@]23C(=O)Nc2ccccc23)cc1` (some centres undefined), the “inhibition zone (IZ)” value in [2] was determined as 19 mm.

In the case of `CCOC(=O)N1C/C(=C\c2cc(OC)c(OC)c(OC)c2)C(=O)[C@@]2(C1)[C@H](c1cc(OC)c(OC)c(OC)c1)CN(C)[C@]21C(=O)Nc2ccccc21`, in experiment [2], the “inhibition zone (IZ)” value is on record as 39.46 mm.

On to `O=C1NC(=O)[C@]2(S1)C1CCCN1[C@@]1(C(=O)Nc3ccccc31)[C@H]2c1ccccc1` (some centres undefined), for which the “inhibition zone (IZ)” value in [2] is recorded as 14 mm.

On to `Cc1cc(N2CCN(c3ccc(C(=O)N[C@H]4CCCC[C@@H]4O)cc3)CC2)ccc1OC[C@@H]1CO[C@@](Cn2cncn2)(c2ccc(F)cc2F)C1`, for which the MIC in [3] and in experiment [4] was 2 µg/mL (≈ 2.91 µM) in each case.

Regarding `C[C@@H]1C[C@H]1/C=C/[C@@H]1C[C@H]1[C@@H]1C[C@H]1[C@@H]1C[C@H]1[C@@H]1C[C@H]1/C=C/C=C/C(=O)NC[C@H]1O[C@@H](N2CCC(=O)NC2=O)[C@H](O)[C@@H]1O`, the minimal effective concentration is 0.016 µg/mL in experiment [5]; at most 0.008 µg/mL in experiment [6]; at most 0.008 µg/mL in [7]; 0.016 µg/mL in experiment [8]; at most 0.008 µg/mL in experiment [9].

For `CCOC(=O)N1C/C(=C\c2ccc([N+](=O)[O-])cc2)C(=O)[C@@]2(C1)[C@H](c1ccc([N+](=O)[O-])cc1)CN(C)[C@]21C(=O)Nc2ccccc21`, in [2], the “inhibition zone (IZ)” value stood at 39.46 mm.

Regarding `CCOC(=O)N1C/C(=C\c2ccc(F)cc2)C(=O)[C@@]2(C1)[C@H](c1ccc(F)cc1)CN(C)[C@]21C(=O)Nc2ccccc21`, in experiment [2], the “inhibition zone (IZ)” value was found to be 39.46 mm.

Regarding `CCOC(=O)N1C/C(=C\c2ccc(F)c(F)c2)C(=O)[C@@]2(C1)[C@H](c1ccc(F)c(F)c1)CN(C)[C@]21C(=O)Nc2ccccc21`, in [2], the “inhibition zone (IZ)” value is given as 39.46 mm.
